These compounds were tested on MCH receptors (assay: MCH receptor activity class (method not given)). Details: class by percent of control at 10^-7 M or IC50.
With `Cc1onc(-c2c(Cl)cccc2Cl)c1C(=O)N[C@H]1CC[C@@H](Nc2nccc(N(C)C)n2)CC1` [compound 352, 3-(2,6-dichlorophenyl)-N-(cis-4-{[4-(dimethylamino)pyrimidin-2-yl]amino}cyclohexyl)-5-methylisoxazole-4-carboxamide] the class was 1 (Class 1: The value of percent of control at 10^−7 M was less than 40% or the value of IC50 was less than 50 nM.).
For `CN(C)c1ccnc(N[C@H]2CC[C@@H](NC(=O)c3cccnc3Oc3ccccc3)CC2)n1` [compound 353, N-(cis-4-{[4-(dimethylamino)pyrimidin-2-yl]amino}cyclohexyl)-2-phenoxynicotinamide], the class was 2 (Class 2: The value of percent of control at 10^−7 M was from 40% to 60% or the value of IC′50 was from 50 nM to 200 nM.).
`CN(C)c1ccnc(N[C@H]2CC[C@@H](NC(=O)c3cccnc3Sc3ccccc3)CC2)n1` [compound 354] was tested, and the class was 3 (Class 3 The value of percent of control at 10^−7 M was more than 60% or the value of IC50 was more than 200 nM.).
In the case of `Cc1ccc(Oc2ncccc2C(=O)N[C@H]2CC[C@@H](Nc3nccc(N(C)C)n3)CC2)cc1` [compound 355, N-(cis-4-{[4-(dimethylamino)pyrimidin-2-yl]amino}cyclohexyl)-2-(4-methylphenoxy)nicotinamide], the class is reported as 1 (Class 1: The value of percent of control at 10^−7 M was less than 40% or the value of IC50 was less than 50 nM.).
For `CCCN(CCC)S(=O)(=O)c1ccc(C(=O)N[C@H]2CC[C@@H](Nc3nccc(N(C)C)n3)CC2)cc1` [compound 356, N-(cis-4-{[4-(dimethylamino)pyrimidin-2-yl]amino}cyclohexyl)-4-[(dipropylamino)sulfonyl]benzamide], the class was 1 (Class 1: The value of percent of control at 10^−7 M was less than 40% or the value of IC50 was less than 50 nM.).
In the case of `CN(C)c1ccnc(N[C@H]2CC[C@@H](NC(=O)C(C)(C)Oc3ccc(Cl)cc3)CC2)n1` [compound 357, 2-(4-chlorophenoxy)-N-(cis-4-{[4-(dimethylamino)pyrimidin-2-yl]amino}cyclohexyl)-2-methylpropanamide], the class is reported as 2 (Class 2: The value of percent of control at 10^−7 M was from 40% to 60% or the value of IC′50 was from 50 nM to 200 nM.).
`CN(C)c1ccnc(N[C@H]2CC[C@@H](NC(=O)c3cc(-c4ccc(Cl)cc4)oc3C(F)(F)F)CC2)n1` [compound 358] was tested, and the class was 3 (Class 3 The value of percent of control at 10^−7 M was more than 60% or the value of IC50 was more than 200 nM.).
With `CN(C)c1ccnc(N[C@H]2CC[C@@H](NC(=O)c3csc(-c4ccc5c(c4)CCO5)n3)CC2)n1` [compound 359, 2-(2,3-dihydro-1-benzofuran-5-yl)-N-(cis-4-{[4-(dimethylamino)pyrimidin-2-yl]amino}cyclohexyl)-1,3-thiazole-4-carboxamide] the class was 1 (Class 1: The value of percent of control at 10^−7 M was less than 40% or the value of IC50 was less than 50 nM.).
With `CN(C)c1ccnc(N[C@H]2CC[C@@H](NC(=O)c3cc(C(C)(C)C)nn3Cc3ccc(Cl)cc3Cl)CC2)n1` [compound 360, 3-tert-butyl-1-(2,4-dichlorobenzyl)-N-(cis-4-{[4-(dimethylamino)pyrimidin-2-yl]amino}cyclohexyl)-1H-pyrazole-5-carboxamide] the class was 2 (Class 2: The value of percent of control at 10^−7 M was from 40% to 60% or the value of IC′50 was from 50 nM to 200 nM.).
In the case of `CN(C)c1ccnc(N[C@H]2CC[C@@H](NC(=O)C3=Cc4cc(Cl)ccc4OC3)CC2)n1` [compound 361, 6-chloro-N-(cis-4-{[4-(dimethylamino)pyrimidin-2-yl]amino}cyclohexyl)-2H-chromene-3-carboxamide], the class is reported as 2 (Class 2: The value of percent of control at 10^−7 M was from 40% to 60% or the value of IC′50 was from 50 nM to 200 nM.).
With `CN(C)c1ccnc(N[C@H]2CC[C@@H](NC(=O)c3ccc(OC(F)(F)F)c(Cl)c3)CC2)n1` [compound 362] the class was 3 (Class 3 The value of percent of control at 10^−7 M was more than 60% or the value of IC50 was more than 200 nM.).

From patent US20050197350A1, “Novel quinoline, tetrahydroquinazoline, and pyrimidine derivatives and methods of treatment related to the use thereof” (TAISHO PHARMACEUTICAL CO., LTD., priority 2003, published 2005)
